# Earlier results as cited in patent US20090062239A1, “THROMBIN RECEPTOR ANTAGONISTS AS PROPHYLAXIS TO COMPLICATIONS FROM CARDIOPULMONARY SURGERY” (Schering Corporation, priority 2005, published 2009).
# Assays:
# [1] = vein grafts closing off between two weeks and one year after CABG surgery
# [2] = treated patients, cardiac/coronary surgery
# [3] = high-risk patients undergoing primary CABG, those on aspirin, reoperative bypass
Molecule,risk for postoperative hemorrhage [2],other results
CC(=O)Oc1ccccc1C(=O)O [aspirin],,reduction of later vein graft closings [1]: 50%
COC(=O)[C@H](c1ccccc1Cl)N1CCc2sccc2C1 [clopidogrel],greater risk,
Aprotinin,,postoperative blood loss [3]: significantly decreases; transfusion requirements (both units and number of patients) [3]: significantly decreases
abciximab,greater risk,
low-molecular weight heparin,greater risk,
